Test [1] relates to tropical signalgrass (Urochloa subquadripara). The test is described as follows: Tropical signalgrass control in Bermudagrass plots. Type of test: in vivo. As to conditions: 28 days after application. An excerpt: Applications of pinoxaden, and pinoxaden plus cloquintocet were applied to various Bermudagrass plots with tropical […] present between August 11 and August 13. The plots were again evaluated 28 days following the application. The following percent weed controls were observed.

Test [2] deals with dallisgrass (Paspalum dilatatum). Put plainly: Dallisgrass control in bermudagrass. The class given is in vivo. As to conditions: two applications, 28 days after the first application. An excerpt:
Applications initiated on Oct. 1, 2014.
initiated in AL for dallisgrass control in bermudagrass on Oct. 28, 2013. Two applications were applied. Percent dallisgrass control was taken 28 days after the first application.

For `CCc1cc(C)cc(CC)c1-c1c(OC(=O)C(C)(C)C)n2n(c1=O)CCOCC2` [Pinoxaden, 8-(2,6-Diethyl-4-methylphenyl)-7-oxo-1,2,4,5-tetrahydro-7H-pyrazolo[1,2-d][1,4,5]oxadiazepin-9-yl-2,2-dimethylpropanoat], the “% Control (28 Days AIA)” value is 79.5% in test [1] (70 g active/ha), 89.7% in test [1] (140 g active/ha), 82% in test [2] (45 g active/ha) and 85% in test [2] (90 g active/ha).

For the origin of these results see US12004511B2, “Method of controlling weeds in warm season turfgrass” (SYNGENTA PARTICIPATIONS AG, priority 2017, dated 2024).
